The values below are quoted from earlier work in patent publication US11839630B2, “CAR-T cells targeting IL-1RAP and their use” (ETABLISSEMENT FRANCAIS DU SANG, priority 2017, dated 2023).

Structures are written as SMILES.

For series [1], the system named is CML. The settings on record: cited from earlier work.
For series [2], the system named is CML. Particulars: cited from earlier work. The source holds these as a separate data set.

Turning to `Cc1ccc(NC(=O)c2ccc(CN3CCN(C)CC3)cc2)cc1Nc1nccc(-c2cccnc2)n1` [Imatinib], the “patients relapsed after discontinuation” value in the series on CML [1] (42 of 69 patients, treatment of more than 2 years discontinued) is 61%. For the same compound, in the series on CML [1] (at 12 months, 69 patients), the “probability of persistent molecularly undetectable leukemia” value was 41%. The “rate of molecular relapse after stopping TKI” value in the series on CML [2] (n=100 patients with complete molecular response) was 61%. Also, the “median time of molecular relapse” value with CML [2] (n=100 patients) was 2.5 months.
